Reference: patent publication KR20110126596A, “자외선 방지제” (고쿠리츠 다이가쿠 호우징 지바 다이가쿠, priority 2008, dated 2010)

Test system: RS cells [RS 세포]
Experiment: MTT assay of UV (UVC) irradiation-induced cell damage in cultured human RS cells pretreated with the substance
Assay type: cell-based
Settings: UV 14 J/m2; for resistance to UV-induced cell damage compared with cells cultured without addition (in words): EPH 1/10 or 1/100 (v/v), 1 day, 3 days after irradiation (Fig. 2)

## OCCOc1ccccc1 [페녹시에탄올]
Listed as EPH
  resistance to UV-induced cell damage compared with cells cultured without addition (in words): 높은 저항성을 나타내었다
Listed as 하이솔브 EPH
  resistance to UV-induced cell damage compared with cells cultured without addition (in words): 높은 저항성을 나타낸다
Phenoxyethanol added at 1/10 - 1/100 (v/v), 1 day pretreatment, MTT 3 days after irradiation
  resistance to cell damage by UV irradiation, compared with no addition: ≥ 2 fold
